Changes are numbered by the printed parent chain. Activity calls are given as the source filed them. No cut-off for these calls is given here.
Assays:
[1] = target: T1, Heat shock protein 75 kDa, mitochondrial (Homo sapiens) (UniProt Q12931); assay: Stimulation of recombinant wild-type human TRAP1 ATPase activity expressed in Escherichia coli BL21 (DE3) at 2 to 5 uM preincubated for 0.5 hrs followed by 2 mM ATP addition and measured after 3 hrs by PiColorLock Gold reagent based colorimetric assay relative to control
T1 sequence (whole entry): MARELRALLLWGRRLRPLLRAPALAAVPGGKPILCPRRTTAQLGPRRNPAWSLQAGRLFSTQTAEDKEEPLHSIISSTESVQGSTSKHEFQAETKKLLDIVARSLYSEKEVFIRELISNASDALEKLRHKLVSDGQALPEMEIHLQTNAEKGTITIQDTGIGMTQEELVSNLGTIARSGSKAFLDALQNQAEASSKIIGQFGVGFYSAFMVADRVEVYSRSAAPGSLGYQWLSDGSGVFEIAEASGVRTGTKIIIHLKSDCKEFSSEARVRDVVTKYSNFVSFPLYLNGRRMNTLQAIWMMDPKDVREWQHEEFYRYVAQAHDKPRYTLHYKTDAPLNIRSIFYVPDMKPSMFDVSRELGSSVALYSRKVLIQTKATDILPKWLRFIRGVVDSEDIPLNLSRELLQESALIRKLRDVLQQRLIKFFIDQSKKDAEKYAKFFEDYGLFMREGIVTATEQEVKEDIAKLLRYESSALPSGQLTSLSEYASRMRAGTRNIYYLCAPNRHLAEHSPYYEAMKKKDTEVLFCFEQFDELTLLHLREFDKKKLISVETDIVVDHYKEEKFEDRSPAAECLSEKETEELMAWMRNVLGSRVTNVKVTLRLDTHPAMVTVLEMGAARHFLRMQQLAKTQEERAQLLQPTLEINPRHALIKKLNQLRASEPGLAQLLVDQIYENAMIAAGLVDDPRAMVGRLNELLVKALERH

[2] = target: T1, Heat shock protein 75 kDa, mitochondrial (Homo sapiens); assay: Inhibition of TRAP1 in human PC3 cells assessed as increase in AMPK phosphorylation at 5 uM measured after 2 to 12 hrs by Western blot analysis; assay type: cell-based; details: PC-3
[3] = test system: T2, Heat shock protein 75 kDa, mitochondrial (Homo sapiens), Q12931 [R114E,E403K]; assay: Stimulation of recombinant […] human TRAP1 R114E/E403K mutant ATPase activity expressed in Escherichia coli BL21 (DE3) up to 20 uM preincubated for 0.5 hrs followed by ATP addition and measured after 3 hrs by PiColorLock Gold reagent based colorimetric assay
T2 sequence (whole entry): T1 sequence (whole entry) with R114E, E403K

[4] = test system: T3, Heat shock protein 75 kDa, mitochondrial (Homo sapiens), Q12931 [E115K,R114E,E403K]; assay: Stimulation of recombinant […] human TRAP1 E115K/R114E/E403K mutant ATPase activity expressed in Escherichia coli BL21 (DE3) up to 20 uM preincubated for 0.5 hrs followed by ATP addition and measured after 3 hrs by PiColorLock Gold reagent based colorimetric assay
T3 sequence (whole entry): T1 sequence (whole entry) with R114E, E115K, E403K

[5] = target: T1, Heat shock protein 75 kDa, mitochondrial (Homo sapiens); assay: Inhibition of TRAP1 in human PC3 cells assessed as increase in reactive oxygen species generation at 10 uM measured after 2 hrs by Mito-SOX probe based flow cytometry; assay type: cell-based; details: PC-3
NCI-H460 [6] = assay: Antitumor activity against human NCI-H460 cells xenografted in nude mouse assessed as reduction in tumor cell proliferation at 5 mg/kg, ip administered daily by Ki67 staining based immunohistochemistry analysis; assay type: functional, organism-based
[7] = target: T1, Heat shock protein 75 kDa, mitochondrial (Homo sapiens); assay: Binding affinity to recombinant wild-type human TRAP1 ATP site expressed in Escherichia coli BL21 (DE3) assessed as induction of conformational change by measuring closed state population of TRAP1 at 10 uM measured after 30 mins in absence of ATP by TEM analysis (reference value: 52.1 +/- 0.6 %)
NCI-H460 [8] = assay: Antitumor activity against human NCI-H460 cells xenografted in nude mouse assessed as induction of tumor cell death by measuring increase in cleaved caspase-3 expression at 5 mg/kg, ip administered daily by Western blot analysis; assay type: functional, organism-based

In the case of `Nc1ncnc2c1nc(Sc1cc3c(cc1I)OCO3)n2CCCCCCCCCC[P+](c1ccccc1)(c1ccccc1)c1ccccc1`, the fold change (FC) [1] is reported as 2, the inhibition [2] is reported as “Active” and the Activity [3] is reported as “Active”. For the same compound, the Activity [4] was “inactive”, the inhibition [5] was “Active” and the Activity (NCI-H460 [6]) was “Active”. The Activity [7] was 72.5% and the Activity (NCI-H460 [8]) was “Active”.

— ChEMBL document CHEMBL4602687, “Dual Binding to Orthosteric and Allosteric Sites Enhances the Anticancer Activity of a TRAP1-Targeting Drug” (J Med Chem, 2020)
